{"source": "patent US7910613B2", "about": "“2-acylaminothiazole derivatives” (H. Lundbeck A/S, priority 2004, dated 2011)", "origin": "cited, not measured here", "key": {"[1]": {"system": "mice", "conditions": "mouse forced swimming test"}, "[2]": {"system": "mice", "conditions": "for total immobility time: mouse tail suspension test"}, "[3]": {"system": "non-human primates"}, "[4]": {"system": "MPTP treated mice and 6-OHDA-lesioned rats"}, "[5]": {"system": "unilateral 6-OHDA (6-hydroxydopamine) lesioned mice and rats", "conditions": "elicited by a subtreshold dose of levodopa"}, "[6]": {"conditions": "mice previously screened for having high immobility time"}}, "note": "Read-outs that look alike come from different tables or passages of the source."}
{"smiles": "Nc1nc(Cl)nc2c1ncn2[C@@H]1O[C@H](CO)[C@@H](O)[C@H]1O", "note": "[2-chloroadenosine]", "values": [{"measurement": "immobility time", "setting": "[1]", "result": "increased immobility time"}]}
{"smiles": "CCn1c(=O)c2c(nc(/C=C/c3ccc(OC)c(OC)c3)n2C)n(CC)c1=O", "note": "[KW-6002, 8-[(1E)-2-(3,4-dimethoxyphenyl)ethenyl]-1,3-diethyl-3,7-dihydro-7-methyl-1H-purine-2,6-dione]", "values": [{"measurement": "total immobility time", "setting": "[2]", "result": "reduced the total immobility time"}, {"measurement": "motor impairment induced by MPTP", "setting": "[3]", "result": "significantly improves motor impairment"}, {"measurement": "dyskinesias", "setting": "[3]; MPTP", "result": "without causing dyskinesias"}, {"measurement": "functional loss of dopaminergic nerve terminals in the striatum", "setting": "[4]", "result": "prevented functional loss of dopaminergic nerve terminals in the striatum"}, {"measurement": "gliosis normally induced around degenerating neurons", "setting": "[4]", "result": "prevented gliosis"}, {"measurement": "contralateral rotations", "setting": "[5]", "result": "enhance contralateral rotations"}]}
{"smiles": "Nc1nc2c(cnn2CCc2ccccc2)c2nc(-c3ccco3)nn12", "note": "[SCH58261, 2-(2-furanyl)-7-(2-phenylethyl)-7H-pyrazolo[4,3-e][1,2,4]triazolo[1,5-c]pyrimidin-5-amine]", "values": [{"measurement": "immobility", "setting": "[2]; [6]", "result": "reduce immobility"}, {"measurement": "immobility", "setting": "[2]; mice selectively bred for their helplessness", "result": "reduced immobility"}, {"measurement": "total immobility time", "setting": "[2]", "result": "reduced the total immobility time"}, {"measurement": "contralateral rotations", "setting": "[5]", "result": "enhance contralateral rotations"}]}
{"smiles": "Nc1nc(NCCc2ccc(O)cc2)nc2nc(-c3ccco3)nn12", "note": "[ZM241385, 4-(2-[7-amino-2-(2-furyl)[1,2,4]triazolo[2,3-a][1,3,5]triazin-5-ylamino]-ethyl)phenol]", "values": [{"measurement": "immobility", "setting": "[2]; [6]", "result": "reduce immobility"}]}
{"smiles": "Nc1ncnc2c1ncn2[C@@H]1O[C@H](CO)[C@@H](O)[C@H]1O", "note": "[adenosine]", "values": [{"measurement": "immobility time", "setting": "[1]", "result": "increased immobility time"}]}
